Measurements reported in patent publication US8372863B2, “Tetrahydro-1H-pyrrolo fused pyridones” (Merck Sharp & Dohme Corp., priority 2008, dated 2013).
Structures can show the parent of a compound that is named as a salt.

target: PHD2 (Homo sapiens, UniProt Q9GZT9); assay: PHD2 / HIF-1α peptide hydroxylation assay with time resolved fluorescence readout (PHD2 binding activity); type: biochemical; details: FLAG-tagged full length PHD2; 0.2 μM 2-oxoglutarate, 0.5 μM HIF-1α peptide; read-out: PHD2 Activity (PHD2 binding activity expressed as IC50)
Method: After a 30 min preincubation at room temperature, the enzymatic reactions were initiated by the addition of 4 μL of substrates (final concentrations of 0.2 μM 2-oxoglutarate and 0.5 μM HIF-1α peptide biotinyl-DLDLEMLAPYIPMDDDFQL). After 2 hr at room temperature, the reactions were terminated and signals were developed by the addition of a 25 μL quench/detection mix to a final concentration of 1 mM ortho-phenanthroline, 0.1 mM EDTA, 0.5 nM anti-(His)6 LANCE reagent (Perkin-Elmer Life Sciences), 100 nM AF647-labeled streptavidin (Invitrogen), and 2 μg/ml (His)6-VHL complex (S. Tan(2001) Protein Expr. Purif 21, 224-234). The ratio of time resolved fluorescence signals at 665 and 620 nm was determined, and percent inhibition was calculated relative to an uninhibited control sample run in parallel.

Sequence of PHD2 (Q9GZT9 whole entry): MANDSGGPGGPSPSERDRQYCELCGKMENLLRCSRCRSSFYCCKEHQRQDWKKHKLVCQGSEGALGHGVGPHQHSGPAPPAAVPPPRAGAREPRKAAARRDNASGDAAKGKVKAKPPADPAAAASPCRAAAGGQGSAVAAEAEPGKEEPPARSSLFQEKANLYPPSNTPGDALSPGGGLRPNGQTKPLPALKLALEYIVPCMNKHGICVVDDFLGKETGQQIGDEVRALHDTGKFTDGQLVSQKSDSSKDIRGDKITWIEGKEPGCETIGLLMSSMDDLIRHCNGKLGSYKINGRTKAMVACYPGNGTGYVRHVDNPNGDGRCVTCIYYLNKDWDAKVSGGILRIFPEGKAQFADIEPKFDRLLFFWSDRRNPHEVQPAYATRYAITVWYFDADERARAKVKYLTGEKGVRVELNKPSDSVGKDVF

Compound	IC50 [nM]
C=CCCC(=O)N1Cc2c(O)c(C(=O)NCC(=O)O)c(=O)n(Cc3ccc(-c4ccccc4)cc3)c2C1C (stereo not drawn) [Example 48, N-{[1-(biphenyl-4-ylmethyl)-4-hydroxy-7-methyl-2-oxo-6-pent-4-enoyl-2,5,6,7-tetrahydro-1H-pyrrolo[3,4-b]pyridin-3-yl]carbonyl}glycine]	< 10
N#Cc1ccccc1Cn1c2c(c(O)c(C(=O)NCC(=O)O)c1=O)CN(C(=O)c1cscn1)C2 [Example 56, N-{[1-(2-cyanobenzyl)-4-hydroxy-2-oxo-6-(1,3-thiazol-4-ylcarbonyl)-2,5,6,7-tetrahydro-1H-pyrrolo[3,4-b]pyridin-3-yl]carbonyl}glycine]	< 10
C=CCCC(=O)N1Cc2c(O)c(C(=O)NCC(=O)O)c(=O)n(Cc3nc4ccccc4s3)c2C1 [Example 3, N-{[1-(1,3-benzothiazol-2-ylmethyl)-4-hydroxy-2-oxo-6-pent-4-enoyl-2,5,6,7-tetrahydro-1H-pyrrolo[3,4-b]pyridin-3-yl]carbonyl}glycine]	< 10
CC1c2c(c(O)c(C(=O)NCC(=O)O)c(=O)n2Cc2ccc(-c3ccccc3)cc2)CN1C(=O)c1cscn1 (single isomer, unassigned) [55 Enantiomer 1]	< 10
O=C(O)CNC(=O)c1c(O)c2c(n(Cc3cccc(-c4ccccc4)c3)c1=O)CN(C(=O)c1cscn1)C2 [Example 44, N-{[1-(biphenyl-3-ylmethyl)-4-hydroxy-2-oxo-6-(1,3-thiazol-4-ylcarbonyl)-2,5,6,7-tetrahydro-1H-pyrrolo[3,4-b]pyridin-3-yl]carbonyl}glycine]	< 10
C=CCCC(=O)N1Cc2c(O)c(C(=O)NCC(=O)O)c(=O)n(Cc3cccc(Br)c3)c2C1 [Example 4, N-{[1-(3-bromobenzyl)-4-hydroxy-2-oxo-6-pent-4-enoyl-2,5,6,7-tetrahydro-1H-pyrrolo[3,4-b]pyridin-3-yl]carbonyl}glycine]	< 10
CC1c2c(c(O)c(C(=O)NCC(=O)O)c(=O)n2Cc2ccc(-c3ccccc3)cc2)CN1C(=O)c1cscn1 (single isomer, unassigned) [55 Enantiomer 2]	10 to 100
O=C(O)CNC(=O)c1c(O)c2c(n(Cc3cccc(-c4cccnc4)c3)c1=O)CN(C(=O)c1cscn1)C2 [Example 52, N-{[4-hydroxy-2-oxo-1-(3-pyridin-3-ylbenzyl)-6-(1,3-thiazol-3-ium-4-ylcarbonyl)-2,5,6,7-tetrahydro-1H-pyrrolo[3,4-b]pyridin-3-yl]carbonyl}glycine trifluoroacetate]	< 10
O=C(O)CNC(=O)c1c(O)c2c(n(Cc3cccc(-c4cncnc4)c3)c1=O)CN(C(=O)c1cscn1)C2 [Example 46, N-{[4-hydroxy-2-oxo-1-(3-pyrimidin-5-ylbenzyl)-6-(1,3-thiazol-4-ylcarbonyl)-2,5,6,7-tetrahydro-1H-pyrrolo[3,4-b]pyridin-3-yl]carbonyl}glycine]	< 10
C=CCCC(=O)N1Cc2c(O)c(C(=O)NCC(=O)O)c(=O)n(Cc3cccc(-c4ccccc4)c3)c2C1 [Example 43, N-{[1-(biphenyl-3-ylmethyl)-4-hydroxy-2-oxo-6-pent-4-enoyl-2,5,6,7-tetrahydro-1H-pyrrolo[3,4-b]pyridin-3-yl]carbonyl}glycine]	< 10
Cc1cc(C(=O)N2Cc3c(O)c(C(=O)NCC(=O)O)c(=O)n(Cc4ccc(C(F)(F)F)cc4)c3C2)nn1C [Example 31, N-({6-[(1,5-dimethyl-1H-pyrazol-2-ium-3-yl)carbonyl]-4-hydroxy-2-oxo-1-[4-(trifluoromethyl)benzyl]-2,5,6,7-tetrahydro-1H-pyrrolo[3,4-b]pyridin-3-yl}carbonyl)glycine chloride]	< 10

The next lines start with the values.

IC50 [nM]	Compound
< 10	O=C(O)CNC(=O)c1c(O)c2c(n(Cc3ccc(C(F)(F)F)cc3)c1=O)CN(C(=O)c1cscn1)C2 [Example 29, N-({4-hydroxy-2-oxo-6-(1,3-thiazol-4-ylcarbonyl)-1-[4-(trifluoromethyl)benzyl]-2,5,6,7-tetrahydro-1H-pyrrolo[3,4-b]pyridin-3-yl}carbonyl)glycine]
< 10	CCOC(=O)N1Cc2c(O)c(C(=O)NCC(=O)O)c(=O)n(Cc3ccc(-c4ccccc4)cc3)c2C1 [Example 22, N-{[1-(biphenyl-4-ylmethyl)-6-(ethoxycarbonyl)-4-hydroxy-2-oxo-2,5,6,7-tetrahydro-1H-pyrrolo[3,4-b]pyridin-3-yl]carbonyl}glycine]
< 10	CN1CCC[C@H]1C(=O)N1Cc2c(O)c(C(=O)NCC(=O)O)c(=O)n(Cc3ccc(C(F)(F)F)cc3)c2C1 [Example 27, N-({4-hydroxy-6-(1-methyl-L-prolyl)-2-oxo-1-[4-(trifluoromethyl)benzyl]-2,5,6,7-tetrahydro-1H-pyrrolo[3,4-b]pyridin-3-yl}carbonyl)glycine]
< 10	N#Cc1cccnc1N1Cc2c(O)c(C(=O)NCC(=O)O)c(=O)n(Cc3ccc(C(F)(F)F)cc3)c2C1 [Example 42, N-({6-(3-cyanopyridinium-2-yl)-4-hydroxy-2-oxo-1-[4-(trifluoromethyl)benzyl]-2,5,6,7-tetrahydro-1H-pyrrolo[3,4-b]pyridin-3-yl}carbonyl)glycine trifluoroacetate]
< 10	O=C(O)CNC(=O)c1c(O)c2c(n(Cc3cccc(-c4ccc(Cl)cc4)c3)c1=O)CN(C(=O)c1cscn1)C2 [Example 45, N-{[1-[(4′-chlorobiphenyl-3-yl)methyl]-4-hydroxy-2-oxo-6-(1,3-thiazol-4-ylcarbonyl)-2,5,6,7-tetrahydro-1H-pyrrolo[3,4-b]pyridin-3-yl]carbonyl}glycine]
< 10	O=C(O)CNC(=O)c1c(O)c2c(n(Cc3ccc(C(F)(F)F)cc3)c1=O)CN(C(=O)c1cocn1)C2 [Example 37, N-({4-hydroxy-6-(1,3-oxazol-4-ylcarbonyl)-2-oxo-1-[4-(trifluoromethyl)benzyl]-2,5,6,7-tetrahydro-1H-pyrrolo[3,4-b]pyridin-3-yl}carbonyl)glycine]
< 10	O=C(O)CNC(=O)c1c(O)c2c(n(Cc3ccccc3)c1=O)CN(C(=O)c1cscn1)C2 [Example 54, N-{[1-benzyl-4-hydroxy-2-oxo-6-(1,3-thiazol-4-ylcarbonyl)-2,5,6,7-tetrahydro-1H-pyrrolo[3,4-b]pyridin-3-yl]carbonyl}glycine]
< 10	O=C(O)CNC(=O)c1c(O)c2c(n(Cc3ccc(C(F)(F)F)cc3)c1=O)CN(C(=O)N1CCOCC1)C2 [Example 11, N-({4-hydroxy-6-(morpholin-4-ylcarbonyl)-2-oxo-1-[4-(trifluoromethyl)benzyl]-2,5,6,7-tetrahydro-1H-pyrrolo[3,4-b]pyridin-3-yl}carbonyl)glycine]
< 10	Cc1ccc(C(=O)N2Cc3c(O)c(C(=O)NCC(=O)O)c(=O)n(Cc4ccc(C(F)(F)F)cc4)c3C2)cn1 [Example 26, N-({4-hydroxy-6-[(6-methylpyridin-3-yl)carbonyl]-2-oxo-1-[4-(trifluoromethyl)benzyl]-2,5,6,7-tetrahydro-1H-pyrrolo[3,4-b]pyridin-3-yl}carbonyl)glycine]
< 10	O=C(O)CNC(=O)c1c(O)c2c(n(Cc3ccc(C(F)(F)F)cc3)c1=O)CN(C(=O)c1ccccc1Cl)C2 [Example 18, N-({6-(2-chlorobenzoyl)-4-hydroxy-2-oxo-1-[4-(trifluoromethyl)benzyl]-2,5,6,7-tetrahydro-1H-pyrrolo[3,4-b]pyridin-3-yl}carbonyl)glycine]
< 10	CN(C)S(=O)(=O)N1Cc2c(O)c(C(=O)NCC(=O)O)c(=O)n(Cc3ccc(C(F)(F)F)cc3)c2C1 [Example 12, N-({6-[(dimethylamino)sulfonyl]-4-hydroxy-2-oxo-1-[4-(trifluoromethyl)benzyl]-2,5,6,7-tetrahydro-1H-pyrrolo[3,4-b]pyridin-3-yl}carbonyl)glycine]
< 10	O=C(O)CNC(=O)c1c(O)c2c(n(Cc3ccc(C(F)(F)F)cc3)c1=O)CN(C(=O)c1cccnc1)C2 [Example 25, N-({4-hydroxy-2-oxo-6-(pyridin-3-ylcarbonyl)-1-[4-(trifluoromethyl)benzyl]-2,5,6,7-tetrahydro-1H-pyrrolo[3,4-b]pyridin-3-yl}carbonyl)glycine]
< 10	O=C(O)CNC(=O)c1c(O)c2c(n(Cc3ccc(C(F)(F)F)cc3)c1=O)CN(C(=O)c1nccs1)C2 [Example 34, N-({4-hydroxy-2-oxo-6-(1,3-thiazol-2-ylcarbonyl)-1-[4-(trifluoromethyl)benzyl]-2,5,6,7-tetrahydro-1H-pyrrolo[3,4-b]pyridin-3-yl}carbonyl)glycine]
< 10	O=C(O)CNC(=O)c1c(O)c2c(n(Cc3ccc(C(F)(F)F)cc3)c1=O)CN(Cc1ccc(Cl)cc1)C2 [Example 39, N-({6-(4-chlorobenzyl)-4-hydroxy-2-oxo-1-[4-(trifluoromethyl)benzyl]-2,5,6,7-tetrahydro-1H-pyrrolo[3,4-b]pyridin-6-ium-3-yl}carbonyl)glycine trifluoroacetate]
< 10	O=C(O)CNC(=O)c1c(O)c2c(n(Cc3ccc(C(F)(F)F)cc3)c1=O)CN(C(=O)N1CCCC1)C2 [Example 17, N-({4-hydroxy-2-oxo-6-(pyrrolidin-1-ylcarbonyl)-1-[4-(trifluoromethyl)benzyl]-2,5,6,7-tetrahydro-1H-pyrrolo[3,4-b]pyridin-3-yl}carbonyl)glycine]

same assay, conditions: PHD2 Activity (PHD2 binding activity expressed as IC50), FLAG-tagged full length PHD2; 0.2 μM 2-oxoglutarate, 0.5 μM HIF-1α peptide

Compound	IC50 [nM]
O=C(O)CNC(=O)c1c(O)c2c(n(Cc3ccc(C(F)(F)F)cc3)c1=O)CN(C(=O)C1CC1)C2 [Example 13, N-({6-(cyclopropylcarbonyl)-4-hydroxy-2-oxo-1-[4-(trifluoromethyl)benzyl]-2,5,6,7-tetrahydro-1H-pyrrolo[3,4-b]pyridin-3-yl}carbonyl)glycine]	< 10
